# Assay results reported in a melting point compilation (Tetko et al.; mined from patent text by program, amines drawn as free bases though some values may be those of a salt).
row,Structure (SMILES),melting point
1,OCCCc1ccc(Sc2ccc(CCCO)cc2C(F)(F)F)c(C(F)(F)F)c1,96 to 102 °C
2,N#CNC=Nc1ccc(-c2ccccn2)cc1,150 to 151 °C
3,COC(=O)CC[C@H](NC(=O)c1ccc(CCn2cnc3nccc-3c2O)cc1)C(=O)OC,170 to 172 °C
4,Cc1cccc(NC(=O)NC2N=C(c3ccccc3F)c3ccccc3N(Cc3ncccc3C(N)=O)C2=O)c1 (racemic),203 °C
5,CNc1c([N+](=O)[O-])c(Br)nn1C,185 °C
6,CCCCCCCCCCCCCCCCCCOc1cc(N)cc(C(=O)N(CC(=O)O)CC(=O)O)c1,108 to 120 °C
7,O=C1C(CCO)Oc2ccccc2N1Cc1cccc(Cl)c1 (centres undefined),63 to 67 °C
8,N#Cc1ccc(-n2c(N)nc3ccccc32)cc1Cl,245 to 248 °C
9,CN1CC=C(c2cn(C)c3ccc(NS(C)(=O)=O)cc23)CC1,198 to 202 °C
10,COC(=O)C(=Cc1ccc(OC)c(OC)c1)C(C)=O,93 to 95 °C
11,O=C(Nc1ccc(Oc2ccccc2)cc1)N1CCN(c2nnc(Cc3ccccc3)c3ccccc23)CC1,100 to 101 °C
12,O=C(O)COc1ccc(SCc2ccccc2OCc2ccc(C(F)(F)F)cc2)c2c1CCC2,150 to 152 °C
13,CC(=O)c1cc(Br)c(OP(=O)(O)O)c(Br)c1,149 to 154 °C
14,CC(=O)On1c(C(F)(F)F)nc2ncc(Cl)cc21,103 °C
15,Cc1ccc(C(=O)NC(NC(=O)Nc2cccnc2)C(Cl)(Cl)Cl)cc1 (centres undefined),162 to 163 °C
16,CC(C)c1cccc(F)c1NC(=S)N/N=C/c1ccc(-c2ncn(-c3ccc(OC(F)(F)F)cc3)n2)cc1,210 to 212 °C
17,O=C(O)C1=Cc2cc(CO)ccc2OC1C(F)(F)F (centres undefined),178 to 181 °C
18,CCOC(=O)C(=CN(C)C)C(=O)c1cc2cc(F)c(Cl)cc2nc1Cl,122 °C
19,O=C1CCC(O)(c2nc3ccccc3s2)C(Sc2ccccc2)(Sc2ccccc2)C1 (centres undefined),150 to 151 °C
20,O=C1NC(=O)C(c2ccc(Oc3ccc(Cl)cc3)cc2)(N2CCN(CC(O)CO)CC2)C(=O)N1 (centres undefined),257 to 258 °C
21,Cc1ccc(C(Cn2cncn2)=NOCc2c(Cl)cccc2Cl)c(Cl)c1,97 to 99 °C
22,O=C(c1c(F)cccc1F)N1COCN(c2ccc(S(=O)C(F)(C(F)(F)F)C(F)(F)F)cc2F)C1=O (centres undefined),40 to 45 °C
23,COc1ccc(OCC(O)CO)cc1 (centres undefined),73 to 74 °C
24,CNS(=O)(=O)c1cc2c(c(C(=O)NCC3CCN(C)C3)c1)OCCO2 (centres undefined),187 to 188 °C
25,CN1CCN(C2=Nc3ccccc3N=C(N3CCN(C)CC3)C2)CC1,227 to 228 °C
26,Cc1c(CC(=O)O)c2cc(OCc3nc4ccccc4s3)ccc2n1Cc1ccccc1,186 to 188 °C

row,Structure (SMILES),melting point
1,N#Cc1ccc(NC(=O)C(=O)N2CCC(Cc3ccc(F)cc3)CC2)cc1,167 to 169 °C
2,COc1ccc(-c2nnc(N)nc2-c2ccc(OC)cc2)cc1,179 to 181 °C
3,CNC(=O)Oc1ccc2c(N(C)CCN3CCOCC3)noc2c1,94 to 95 °C
4,CCOC(=O)C1Cc2cc(C(=O)c3ccccc3F)c(O)c(Cl)c2O1 (centres undefined),119 to 120 °C
5,CCN(CC)CCCC(=O)c1ccc2c(c1)Cc1cc(C(=O)CCCN(CC)CC)ccc1-2,79 to 81 °C
6,CC(=O)OC1CCCCC1n1cnc2cc(Cl)c(Cl)cc21 (centres undefined),145 to 147 °C
7,Oc1ccc2c(-c3ccccn3)noc2c1Cl,209 to 211 °C
8,O=C(C1Cc2ccccc2N1c1ncccn1)N1CCCC1 (centres undefined),220 to 223 °C
9,O=C1C2CCCCC2C2(c3ccccc3)NCCN12 (centres undefined),170 °C
10,COc1ccccc1C1(c2ccccc2OC)CC1,146 to 149 °C
11,CC[C@H](C)[C@H](NC(=O)[C@@H]1CCCN1C(=O)OCc1ccccc1)C(=O)NCC(C)C,87 to 88 °C
12,O=C1CCC(=O)C(Cc2ccccc2)N1 (centres undefined),140 to 141 °C
13,C[C@@H](S)[C@](O)(Cn1ccnc1)c1ccc(F)cc1F,125 to 135 °C
14,CC(C)(C)OC(=O)N1CCC(Oc2ccccc2C(C)(C)C)C1 (centres undefined),81 to 82 °C
15,CN(C)S(=O)(=O)c1cc2c(c(Cl)c1Cl)OC(CCl)C2 (centres undefined),77 to 78 °C
16,CCCCCCCCCCCCCCCC(=O)N[C@H]1CCCNC(=O)C1,99 to 100 °C
17,Cc1nsc(NC(=O)C(C)c2ccc(O)c(N)c2)c1Cl (centres undefined),222 to 223 °C
18,OCCc1ccc(Nc2ncc3c(n2)-c2ccccc2C(c2cccc(Br)c2)C3)cc1 (centres undefined),88 to 90 °C
19,COC(=O)C(NC(=O)N1C2CCC(C2)N1CC(O)C(Cc1ccccc1)NC(=O)C(NOCc1ccccn1)C(C)C)C(C)C (mixture of isomers),79 to 84 °C
20,O=C(O)C(O)N1C(=O)CCN1c1cccc(Cl)c1 (centres undefined),134 to 136 °C
21,Oc1ccc2c(c1)CCCC(c1ccccc1)=C2c1ccc(OCCCCCI)cc1,192 to 193 °C
22,O[C@H]1c2cc(OCc3ccc4cc(F)ccc4n3)ccc2OC[C@H]1Oc1cccnc1,163 to 164 °C
23,CC(C)(C)OCC(=O)c1cnc(NC(=O)C(C)(C)C)cn1,138 to 140 °C
24,CC12CCC(=O)CC1CCC1C2CCC2(C)C(OC(=O)CCl)CCC12 (centres undefined),135 to 136 °C
25,CCc1cc(=O)c2nc(OCC[Si](C)(C)C)ccc2[nH]1,193 °C
26,ClC1=NC(C2CC2)Nc2cscc21 (centres undefined),86.5 to 88.5 °C

row,Structure (SMILES),melting point
1,O=C(O)Cn1cccc(NC(=O)CCc2ccccc2)c1=O,195 to 197 °C
2,O=C(C=Cc1cc(F)cc(F)c1)c1cnc2sc3c(n12)CCCCC3,207 to 209 °C
3,CC(=N)Nc1cccc([N+](=O)[O-])c1,226 to 228 °C
4,CC(=O)c1ccc2c(c1)CCc1ccccc1-2,58 to 60 °C
5,COC(=O)CCc1cc2cc(Cl)ccc2n1S(=O)(=O)c1cccc(C(F)(F)F)c1,98 to 100 °C
6,CSC[C@H](C)NC(=O)c1c(I)cccc1C(=O)O,132 to 134 °C
7,CCn1cnc(=O)c(-c2cccc(C(F)(F)F)c2)c1,172 to 173 °C
8,CCOC(=O)NC(=S)Nc1ccsc1C(=O)OC,165 to 167 °C
9,CC(=O)Nc1cscc1C(=O)O,206 °C
10,Cc1cc2cnccc2s1,47 to 48 °C
11,OC1CSC(Oc2cccnc2Cl)C(O)C1O (centres undefined),153 °C
12,COC(=O)C=Nc1cc(Cl)ccc1C(=O)O,201 to 203 °C
13,CCOC(=O)c1ccc(NCCCOc2ccccc2)cc1,73 to 74 °C
14,CNc1c(F)cc2c(=O)c(C(=O)O)cn(-c3nc(NCCO)c(F)cc3F)c2c1Cl,201 to 205 °C
15,COc1ccc(CN(C)CCc2ccc(NC(=O)c3cccc4c(=O)c5cccc(F)c5[nH]c34)c(C)c2)cc1OC,125 °C
16,Cc1cccc(C)c1NC(=O)NCCCNC(C)C,152 to 154 °C
17,O=C(CCCN1CCCCC1)c1ccc2c(c1)Cc1cc(C(=O)CCCN3CCCCC3)ccc1O2,115 to 117 °C
18,CCC1C(=O)c2c(cc(OCC(=O)O)c(Cl)c2Cl)C1c1ccccc1 (centres undefined),199 to 203 °C
19,COc1cc2c(cc1Br)Cc1cc(Br)ccc1-2,172 °C
20,COc1ccc2c(c1)C=CC(C#N)N2C(=O)c1ccccc1 (centres undefined),124 °C
21,N#Cc1cc(O)c(O)c(O)c1,219 °C
22,CC1(C)Oc2ccccc2-n2c(CN3CCOCC3)ccc21,150 to 151 °C
23,N[C@H](C(=O)O)[C@H](S)c1ccccc1,107 to 108 °C
24,CCC(CC)(CCCS(N)(=O)=O)COc1nn2ncnc2cc1C,157 to 158 °C
25,CCC1(c2ccccc2)Cc2cc(OC)c(Cl)c(Cl)c2C1=O (centres undefined),139 to 141 °C
26,CCN1C(=O)C(C)(C)C(=O)N(C)c2cc(OCCCn3c(=O)c(Br)cc4ccccc43)ccc21,168 to 169 °C

row,Structure (SMILES),melting point
1,CC(=O)CC(=O)Nc1cccc(OCc2ccccc2)c1,80 °C
2,O=C1c2c(O)cncc2C(=O)c2c(Cl)ccc(F)c21,227 to 228 °C
3,O=C(O)Cc1cc(C(=O)c2cccc(C(=O)O)c2)ccc1O,> 260 °C
4,CCC(C)(C(=O)c1ccc(N2CCOCC2)cc1)N1CCOCC1 (centres undefined),111 to 114 °C
5,O=S1N=C(NCCCN(Cc2cccs2)c2ccccn2)C(NCc2ccncc2)=N1 (centres undefined),129 to 130 °C
6,COc1ccc(C(=O)Nc2ccc(C(C)(C)C(N)=O)cc2)cc1OC,193 to 195 °C
7,CC(C)(C)n1nc2c(N)nc3ccccc3c2c1CCCNS(C)(=O)=O,223 to 224 °C
8,Cc1cc(-c2cn[nH]c2N)ccn1,230 °C
9,COc1cc(CC(=O)O)ccc1NC(=O)Nc1ccccc1C(F)(F)F,218 to 220 °C
10,CNC(=C[N+](=O)[O-])NCCCCOc1cccc(CCCN(C)C)c1,79 to 80.5 °C
11,CCc1nn2c(c1Oc1cc(Cl)cc(Cl)c1)CN(Cc1ccc(C#N)cc1)CC2,149 to 150 °C
12,O=C(O)CCCc1cc2cc(Cl)ccc2n1S(=O)(=O)c1cccc2cccnc12,217 to 219 °C
13,CCCCCCc1ncc(/C=C(\Cc2cccs2)C(=O)O)n1Cc1ccccc1Cl,161 to 163 °C
14,Cc1nnc(CCl)n1-c1ccc(Cl)cc1C(=O)c1ccccc1Cl,127 to 130 °C
15,Cc1cc(C(O)c2ccccc2)sc1C (centres undefined),79 to 80 °C
16,CCONC(=O)n1nc(Oc2c(Cl)cc(C(F)(F)F)cc2Cl)cc1C,105 to 107 °C
17,Cc1ccc(S(=O)(=O)OCC2Cc3cc(Cl)c4c(c3O2)CCC4)cc1 (centres undefined),82 to 84 °C
18,CC(C)(C)OC(=O)Nc1cccc(OC2CCN(c3ccncc3)CC2)c1,165 to 166 °C
19,CC(C)(C)NCC(O)c1cc(Br)c(N)c([N+](=O)[O-])c1 (centres undefined),151 to 152 °C
20,CC1CCN(c2cc3nc(C(C)(C)C)sc3cc2NC(=S)N2CCN(C)CC2)CC1,192 to 195 °C
21,CN1C(=O)N(c2ccccc2F)C(=O)C1=CC1CCCCC1,131 to 137 °C
22,CC(C)CC(CS)C(=O)NCCCCCCCC(=O)N[C@@H](CCCNC(=N)N)C(=O)O (some centres undefined),102 to 130 °C
23,CCCCCCC1C(=O)NC(C(=O)SCCC(=O)OC)(C(O)C2C=CCCC2)C1(C)O (centres undefined),64 °C
24,COC1(c2cccc(OCc3ccc4ccccc4c3)c2)CCCOCC1 (centres undefined),57 to 58 °C
25,COc1ccc(C(O)c2cccc(OCc3ccccc3)c2)cc1 (centres undefined),50 to 60 °C
26,CC(C)NC(=O)Nc1ccnc(Br)c1,136 to 138 °C
